Measured values reported in US20250388575A1, “HETEROBIFUNCTIONAL COMPOUNDS AND METHODS OF TREATING DISEASE” (Halda Therapeutics OpCo, Inc., priority 2022, published 2025).
Like-named read-outs stand apart in the source and are kept apart here.

Experiments:
[1] = system: T-Rex 293 cell line SC3 cells having increased expression of androgen receptor protein; test: Cellular growth inhibition, T-Rex 293 SC3 cells with increased androgen receptor expression (doxycycline), CellTiter-Glo; format: cell-based; conditions: T-Rex 293 SC3 cells with increased androgen receptor expression (exposed to 10 ng/mL doxycycline), 72 hours, CellTiter-Glo; read-out: GI50
Summary of the method: (§1)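 SC3, a T-Rex 293 clone with doxycycline-inducible wild-type androgen receptor, was seeded in phenol red-free DMEM with 10% charcoal-dextran FBS, with or without 10 ng/mL doxycycline. Compound added at 24 h (0.5% DMSO) for 72 h at 37° C. CellTiter-Glo 2.0 luminescence; GI50 from four-parameter fit.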

T47D cells = test: Cellular growth inhibition assay for T47D cells, CellTiter-Glo; format: cell-based, human; conditions: 72 hours treatment, CellTiter-Glo 2.0
Procedure: T47D cells were purchased from American Type Cell Culture (ATCC Cat #HTB-133) and then seeded on poly-D-lysine coated, black clear-bottom 384-well plates at 3000/well in 25 μL Dulbecco's Modified Eagle Medium (DMEM) supplemented with 10% w/w Fetal bovine serum (FBS), 0.2 units/mL recombinant human insulin (Gibco Cat #12585014), and 1% w/w Pen-Strep. Pen-Strep is a commercially available mixture of penicillin G and streptomycin, which is used in mammalian cell culture media to prevent bacterial contamination. Dulbecco's Modified Eagle Medium (DMEM) supplemented with 10% w/w fetal bovine serum (FBS), 0.2 units/mL recombinant human insulin, and 1% w/w Pen-Strep is herein referred to as Treatment Medium. Following seeding of cells in the plates, the plates were spun at 300×g for 30 seconds, then equilibrated to room temperature for 30 minutes, and then deposited in a humidified tissue culture incubator maintained at 37° C. with 5% CO2.
At 24 hours after seeding of the cells, dilutions of test compound were prepared in DMSO and dissolved in Treatment Medium, to achieve a final DMSO concentration of 0.5% w/w, thereby providing the Test Compound Solution. A 25 μL aliquot of the Test Compound Solution was added to cells in the well plates. An equal volume of a solution containing DMSO and Treatment Medium was used as a negative control. Following treatment of cells with Test Compound Solution or said equal volume of a solution containing DMSO and Treatment Medium, the plates were spun at 300×g for 30 seconds, and then left in an incubator for 72 hours.
At the end of the treatment duration, cell viability was quantified with CellTiter-Glo 2.0 reagent (Promega Cat #G9243). For this purpose, plates were equilibrated to room temperature for 30 minutes, and then 25 μL of CellTiter-Glo 2.0 reagent was added to cells in the plate wells. Plates were then agitated on a shaker for two minutes at 500 rpm and subsequently incubated at room temperature for 10 minutes. Following incubation, the plates were spun at 3000×g for 30 seconds, then sealed with an optical adhesive cover, and luminescence readings were measured with an EnVision Plate Reader (Perkin Elmer).
Data was normalized using zero luminescence for baseline. A four-parameter non-linear regression curve fit was applied to dose-response data in GraphPad Prism data analysis software to determine the half-maximal growth inhibitory concentration (GI50) for each test compound.

VCaP cells = test: Cellular growth inhibition assay for VCaP cells, CellTiter-Glo; format: cell-based, human; conditions: VCaP cells, 72 hours, CellTiter-Glo, read-out: GI50
Summary of the method: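 GI50 values come from four-parameter curve fits of luminescence data normalized to a zero baseline. Compound, in medium with 0.5% DMSO, was added one day after plating and left for 72 h before CellTiter-Glo 2.0 addition.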

[2] = system: T-Rex 293 cell line SC3 cells lacking increased expression of androgen receptor protein; test: Cellular growth inhibition, T-Rex 293 SC3 cells lacking increased androgen receptor expression (no doxycycline), CellTiter-Glo; format: cell-based; conditions: T-Rex 293 SC3 cells lacking increased androgen receptor expression (not exposed to doxycycline), 72 hours, CellTiter-Glo; read-out: GI50
Summary of the method: as §1

| GI50 (T47D cells) [µM] | GI50 (VCaP cells) [µM] | GI50 (T47D cells; Homo sapiens) [µM] | GI50 (VCaP cells; Homo sapiens) [µM] | Compound | GI50 [1] [µM] | GI50 [2] [µM] |
| --- | --- | --- | --- | --- | --- | --- |
| < 0.5 | < 0.5 | – | – | CCS(=O)(=O)c1ccc(Oc2ccc(N3CC(C4CCN(c5ccc(C(=O)N[C@H]6CC[C@H](Oc7ccc(C#N)c(Cl)c7)CC6)nn5)CC4)C3)cc2)c(-c2cn(C)c(=O)c3[nH]ccc23)c1 [I-91] | < 0.5 | < 0.5 |
| < 0.5 | < 0.5 | – | – | C=CC1CN(c2ccc(C(=O)N[C@H]3CC[C@H](Oc4ccc(C#N)c(Cl)c4)CC3)nn2)CC1c1ccc(Oc2ccc(S(=O)(=O)CC)cc2-c2cn(C)c(=O)c3[nH]ccc23)cc1 (stereo partly shown) [I-87] | < 0.5 | 0.5 to 1.5 |
| < 0.5 | > 3 | – | – | CCS(=O)(=O)c1ccc(C(F)(F)c2ccc(CCC3CCN(c4ccc(C(=O)NC5CCC(Oc6ccc(C#N)c(Cl)c6)CC5)nn4)CC3)cc2)c(-c2cn(C)c(=O)c3[nH]ccc23)c1 (stereo not shown) [I-251, N-((1r,4r)-4-(3-chloro-4-cyanophenoxy)cyclohexyl)-6-(4-(4-((4-(ethylsulfonyl)-2-(6-methyl-7-oxo-6,7-dihydro-1H-pyrrolo[2,3-c]pyridin-4-yl)phenyl)difluoromethyl)phenethyl)piperidin-1-yl)pyridazine-3-carboxamide] | < 0.5 | > 3 |
| < 0.5 | < 0.5 | – | – | CCS(=O)(=O)c1ccc(Oc2ccc(CCC3CN(c4ccc(C(=O)N[C@H]5CC[C@H](Oc6ccc(C#N)c(Cl)c6)CC5)nn4)C3)cc2)c(-c2cn(C)c(=O)c3[nH]ccc23)c1 [I-72] | < 0.5 | < 0.5 |
| < 0.5 | < 0.5 | – | – | CCS(=O)(=O)c1ccc(Oc2ccc(CCC3CCN(c4ccc(C(=O)N[C@H]5CC[C@H](Oc6ccc(C#N)c(Cl)c6)CC5)nn4)CC3)c(Cl)c2)c(-c2cn(C)c(=O)c3[nH]ccc23)c1 [I-84] | < 0.5 | > 3 |
| 0.5 to 1.5 | < 0.5 | – | – | CCS(=O)(=O)c1ccc(Oc2ccc(CCC3CCN(c4ccc(C(=O)N[C@H]5CC[C@H](Oc6ccc(C#N)c(Cl)c6)CC5)nn4)CC3)c(C#N)c2)c(-c2cn(C)c(=O)c3[nH]ccc23)c1 [I-79] | < 0.5 | > 3 |
| – | – | < 0.5 | < 0.5 | CCS(=O)(=O)c1ccc(Oc2ccc(CC3CC4(C3)CN(c3ccc(C(=O)N[C@H]5CC[C@H](Oc6ccc(C#N)c(Cl)c6)CC5)nn3)C4)cc2)c(-c2cn(C)c(=O)c3[nH]ccc23)c1 [I-69] | < 0.5 | < 0.5 |
| < 0.5 | < 0.5 | – | – | CCS(=O)(=O)c1ccc(Oc2ccc(CCC3CCN(c4ccc(C(=O)N[C@H]5CC[C@H](Oc6ccc(C#N)c(Cl)c6)CC5)nn4)CC3)c(C(F)(F)F)c2)c(-c2cn(C)c(=O)c3[nH]ccc23)c1 [I-85] | < 0.5 | < 0.5 |
| < 0.5 | < 0.5 | – | – | CCS(=O)(=O)c1ccc(Oc2ccc(CCC3C4CN(c5ccc(C(=O)N[C@H]6CC[C@H](Oc7ccc(C#N)c(Cl)c7)CC6)nn5)CC34)cc2)c(-c2cn(C)c(=O)c3[nH]ccc23)c1 (stereo partly shown) [I-70] | < 0.5 | < 0.5 |
| < 0.5 | < 0.5 | – | – | CCS(=O)(=O)c1ccc(Oc2ccc(C3CC4(CCN(c5ccc(C(=O)N[C@H]6CC[C@H](Oc7ccc(C#N)c(Cl)c7)CC6)nn5)CC4)C3)cc2)c(-c2cn(C)c(=O)c3[nH]ccc23)c1 [I-60] | < 0.5 | < 0.5 |

The remaining lines, values behind:

| Compound | GI50 (T47D cells) [µM] | GI50 (VCaP cells) [µM] | GI50 (T47D cells; Homo sapiens) [µM] | GI50 (VCaP cells; Homo sapiens) [µM] | GI50 [1] [µM] | GI50 [2] [µM] |
| --- | --- | --- | --- | --- | --- | --- |
| CN(CCCc1ccc(Oc2ccc(C(C)(C)O)cc2-c2cn(C)c(=O)c3[nH]ccc23)cc1)c1ccc(C(=O)N[C@H]2CC[C@H](Oc3ccc(C#N)c(Cl)c3)CC2)nn1 [I-105] | 1.5 to 3 | < 0.5 | – | – | < 0.5 | < 0.5 |
| Cn1cc(-c2cc(C(C)(C)O)ccc2Oc2ccc(N3CC(CC4CCN(c5ccc(C(=O)N[C@H]6CC[C@H](Oc7ccc(C#N)c(Cl)c7)CC6)nn5)CC4)C3)cc2)c2cc[nH]c2c1=O [I-147] | – | – | < 0.5 | < 0.5 | < 0.5 | > 3 |
| CCS(=O)(=O)Nc1ccc(Oc2cccc(COC3CCN(c4ccc(C(=O)N[C@H]5CC[C@H](Oc6ccc(C#N)c(Cl)c6)CC5)nn4)CC3)c2F)c(-c2cn(C)c(=O)c3[nH]ccc23)c1 [I-26] | – | – | < 0.5 | < 0.5 | < 0.5 | > 3 |
| Cn1cc(-c2cc(C(C)(C)O)ccc2CN2CC(CC3CCN(c4ccc(C(=O)NC5CCC(Oc6ccc(C#N)c(Cl)c6)CC5)nn4)CC3)C2)c2cc[nH]c2c1=O (stereo not shown) [I-248, N-[4-(3-chloro-4-cyano-phenoxy)cyclohexyl]-6-[4-[[1-[[4-(1-hydroxy-1-methyl-ethyl)-2-(6-methyl-7-oxo-1H-pyrrolo[2,3-c]pyridin-4-yl)phenyl]methyl]azetidin-3-yl]methyl]-1-piperidyl]pyridazine-3-carboxamide] | – | – | 0.5 to 1.5 | > 3 | 0.5 to 1.5 | 1.5 to 3 |
| CCS(=O)(=O)Cc1ccc(Oc2cccc(OCCOC3CCN(c4ncc(C(=O)N[C@H]5CC[C@H](Oc6ccc(C#N)c(Cl)c6)CC5)cn4)CC3)c2)c(-c2cn(C)c(=O)c3[nH]ccc23)c1 [I-152] | – | – | < 0.5 | < 0.5 | < 0.5 | < 0.5 |
| Cn1cc(-c2cc(C(C)(C)O)ccc2Oc2ccc(N3CC(CC4CN(c5ccc(C(=O)N[C@H]6CC[C@H](Oc7ccc(C#N)c(Cl)c7)CC6)nn5)C4)C3)cc2)c2cc[nH]c2c1=O [I-149] | – | – | < 0.5 | < 0.5 | < 0.5 | < 0.5 |
| CCS(=O)(=O)c1ccc(Oc2ccc(OC3CC4(C3)CN(c3ccc(C(=O)N[C@H]5CC[C@H](Oc6ccc(C#N)c(Cl)c6)CC5)nn3)C4)c(F)c2)c(-c2cn(C)c(=O)c3[nH]ccc23)c1 [I-44] | – | – | < 0.5 | < 0.5 | < 0.5 | < 0.5 |
| Cn1cc(-c2cc(C(C)(C)O)ccc2Oc2cc(F)c(CCC3CCN(c4ccc(C(=O)N[C@H]5CC[C@H](Oc6ccc(C#N)c(Cl)c6)CC5)nn4)CC3)c(F)c2)c2cc[nH]c2c1=O [I-114] | 1.5 to 3 | < 0.5 | – | – | < 0.5 | > 3 |
| Cn1cc(-c2cc(S(C)(=O)=O)ccc2Oc2cccc(CCCC3CCN(c4ncc(C(=O)N[C@H]5CC[C@H](Oc6ccc(C#N)c(Cl)c6)CC5)cn4)CC3)c2)c2cc[nH]c2c1=O [I-233] | < 0.5 | < 0.5 | – | – | < 0.5 | < 0.5 |
| Cn1cc(-c2cc(N3CCCCS3(=O)=O)ccc2Oc2ccc(CCC3CCN(c4ccc(C(=O)NC5CCC(Oc6ccc(C#N)c(Cl)c6)CC5)nn4)CC3)cc2)c2cc[nH]c2c1=O (stereo not shown) [I-246, N-[4-(3-chloro-4-cyano-phenoxy)cyclohexyl]-6-[4-[2-[4-[4-(1,1-dioxothiazinan-2-yl)-2-(6-methyl-7-oxo-1H-pyrrolo[2,3-c]pyridin-4-yl)phenoxy]phenyl]ethyl]-1-piperidyl]pyridazine-3-carboxamide] | < 0.5 | < 0.5 | – | – | < 0.5 | < 0.5 |
| CN(C1CN(c2ccc(Oc3ccc(C(C)(C)O)cc3-c3cn(C)c(=O)c4[nH]ccc34)cc2)C1)C1CN(c2ccc(C(=O)N[C@H]3CC[C@H](Oc4ccc(C#N)c(Cl)c4)CC3)nn2)C1 [I-143] | < 0.5 | < 0.5 | – | – | < 0.5 | > 3 |
| Cn1cc(-c2cc(C(C)(C)O)ccc2Oc2ccc(CCOC3CCN(c4ccc(C(=O)N[C@H]5CC[C@H](Oc6ccc(C#N)c(Cl)c6)CC5)nn4)CC3)c(F)c2)c2cc[nH]c2c1=O [I-132] | – | – | < 0.5 | < 0.5 | < 0.5 | > 3 |
